According to patent US20030191120A1, “Antiparkinsonism drugs” (priority 2000, published 2003):

Experiments:
[1] = system: normal mice; experiment: Spontaneous locomotor activity after oral administration to normal mice (SCANET apparatus); assay type: in vivo, C57BL/6 mice (male); details: p.o.
Protocol: The enhancing effects of compound (IX) on the spontaneous locomotor activity were examined in normal mice.
Compound (IX) was orally administrated to C57BL/6 mice (male) and the spontaneous locomotor activity was measured with a locomotor activity measuring apparatus (SCANET, TOYO sangyo). Mice were familiarized to the cage of the apparatus for at least 60 min. Compound (IX) (1,3,10 mg/kg) or vehicle (vehicle, distilled water Otsuka) was administrated orally. The spontaneous locomotor activity was measured for 5 hours after the mice were returned to the cage.

[2] = system: 6-OHDA-treated mice; experiment: Spontaneous locomotor activity in mice injected intracerebroventricularly with 6-OHDA (Parkinson's disease model); assay type: in vivo, C57BL/6 mice (male); details: 6-OHDA mice
Protocol: Mice injected intracerebroventricularly with a monoaminergic toxin, 6-OHDA were used as a model for Parkinson's disease.
To C57BL/6 mice (male) were administrated desipramine (desipramine (25 mg/kg, i.p., 0.5%), lactic acid) and 6-OHDA (40 μg/μl/mouse, 0.2% ascorbic acid) was injected in the cerebroventricule after 30 min. The mice were placed in the locomotor activity measuring apparatus after one day. Compound (IX) (0.3, 1 mg/kg), with or without L-DOPA (10 mg/kg, i.p., dissolved in 0.1N HCl and diluted with distilled water or injection, Otsuka Pharmaceutical), was administrated after 90 min, then the spontaneous locomotor activity was measured for 5 hours. When L-DOPA was administrated, mice were pre-treated with carbidopa (25 mg/kg, i.p., 0.5% lactic acid) before 30 min.

[3] = system: reserpine-induced cataleptic posture; experiment: Catalepsy test in mice pre-treated with reserpine; assay type: in vivo, ddy mice (male); details: 1 hour after administration
Protocol: The effects of compound (IX) in single administration and in combination with L-DOPA on cataleptic responses were examined in mice pre-treated with a monoamine-depleting drug, reserpine. Reserpine (5 mg/kg, i.p., Apoplon Inj, Daiichi Pharmaceutical) was administrated to ddy mice (male). On the next day, compound (IX) (0.3, 1, 3 mg/kg, p.o.) with or without L-DOPA (25, 100 mg/kg, i.p., dissolved in 0.1N HCl and diluted with distilled water for injection (Otsuka Pharmaceutical)) was administrated to the mice and catalepsy test was performed after 1 hour. When L-DOPA was administrated, mice were pre-treated with carbidopa (25 mg/kg, i.p., 0.5% lactic acid) before 30 min. The forelimbs or hindlimbs of each mouse were placed on a 4.5 cm high horizontal bar and the time was measured (cut off time 30 sec) until both legs reach the floor. The cataleptic responses were scored as follows (less than 5 sec.: 0 point, 5 sec. to less than 10 sec.: 1 point, 10 sec to less than 15 sec.: 2 points, 15 sec. to than 20 sec.: 3 points, 20 sec. to less than 25 sec.: 4 points, 25 sec. to less than 30 sec.: 5 points, 30 sec. or more: 6 points). For forelimbs, the scores for 3 repetitive tests were summated. For hindlimbs, the tests were performed 5 times and of which 3 scores were summated excluding the highest and lowest scores. The catalepsy scores were calculated as the total scores for forelimbs and hindlimbs.

[4] = system: MPTP-treated mice; experiment: Spontaneous locomotor activity in MPTP-treated mice (Parkinson's disease model); assay type: in vivo, C57BL/6 mice (male); details: MPTP 40 mg/kg x 2 mice, compound (IX) alone 3 mg/kg p.o., P < 0.05 vs MPTP-treated control group
Protocol: Mice injected with a dopaminergic toxin, MPTP were used as a model for Parkinson's disease and the effects of single administration of compound (IX) on the reduction of the spontaneous locomotor activity caused by MPTP-treatment were examined.
MPTP (40 mg/kg, i.p., saline) was injected twice at 24-hr intervals to C57BL/6 mice (male), and the day after the last administration, the mice were placed in locomotor activity measuring apparatus. After 30 min, compound (IX) alone (0.3, 1, 3 mg/kg, p.o.) was administered.

## C[C@@H]1OC(=O)N[C@@H]1C(=O)NC(Cc1cscn1)C(=O)N1CCC[C@H]1C (stereo in doubt) [Compound (IX)]
[1]
  dose at which the spontaneous locomotor activity was increased: ≥ 3 mg/kg
[2]; compound (IX) 1 mg/kg p.o. in combination with L-DOPA 10 mg/kg i.p. (carbidopa pre-treatment), 5 hours, P < 0.01 vs 6-OHDA-treated group
  spontaneous locomotor activity, Total: 14468 ± 3618
[2]; compound (IX) 1 mg/kg p.o. in combination with L-DOPA 10 mg/kg i.p. (carbidopa pre-treatment), 5 hours, P < 0.01 vs 6-OHDA-treated group, listed as compound (IX)
  spontaneous locomotor activity, Total: significant and remarkable increase
[2]; compound (IX) 1 mg/kg p.o. in single administration, measured for 5 hours, 1 mg/kg
  spontaneous locomotor activity, Total: 2512 ± 333
[2]; compound (IX) 1 mg/kg p.o. in single administration, measured for 5 hours, listed as compound (IX), 1 mg/kg
  spontaneous locomotor activity, Total: did not show significant increase
[3]; compound (IX) 1 mg/kg p.o. + L-DOPA 100 mg/kg i.p.
  catalepsy score, mean: 2.3
[3]; compound (IX) 1 mg/kg p.o. + L-DOPA 100 mg/kg i.p., listed as compound (IX)
  catalepsy score, mean: significant depression effect
[3]; compound (IX) 3 mg/kg p.o. + L-DOPA 100 mg/kg i.p.
  catalepsy score, mean: 9.2
[3]; compound (IX) 3 mg/kg p.o. + L-DOPA 100 mg/kg i.p., listed as compound (IX)
  catalepsy score, mean: significant depression effect
[4]
  spontaneous locomotor activity, Total: 5463 ± 700
[4]; listed as compound (IX)
  spontaneous locomotor activity, Total: significantly increased
